Assay results published in patent US20250163054A1, “SUBSTITUTED BICYCLIC HETEROARYL COMPOUNDS USEFUL AS INHIBITORS OF TLR9” (Bristol-Myers Squibb Company, priority 2022, published 2025).

What was measured:
Assay type in all cases: cell-based
[1] = biological target: T1, human TLR9 (Homo sapiens, UniProt Q9NR96); test: TLR7/8/9 Inhibition Reporter Assays (TLR9); settings: HEK-Blue cells overexpressing human TLR9, SEAP reporter, stimulated with TLR9 ligand ODN2006
T1 construct: host or cells: HEK-Blue cells (HEK293-derived reporter line)
T1 sequence (Q9NR96 26-1032): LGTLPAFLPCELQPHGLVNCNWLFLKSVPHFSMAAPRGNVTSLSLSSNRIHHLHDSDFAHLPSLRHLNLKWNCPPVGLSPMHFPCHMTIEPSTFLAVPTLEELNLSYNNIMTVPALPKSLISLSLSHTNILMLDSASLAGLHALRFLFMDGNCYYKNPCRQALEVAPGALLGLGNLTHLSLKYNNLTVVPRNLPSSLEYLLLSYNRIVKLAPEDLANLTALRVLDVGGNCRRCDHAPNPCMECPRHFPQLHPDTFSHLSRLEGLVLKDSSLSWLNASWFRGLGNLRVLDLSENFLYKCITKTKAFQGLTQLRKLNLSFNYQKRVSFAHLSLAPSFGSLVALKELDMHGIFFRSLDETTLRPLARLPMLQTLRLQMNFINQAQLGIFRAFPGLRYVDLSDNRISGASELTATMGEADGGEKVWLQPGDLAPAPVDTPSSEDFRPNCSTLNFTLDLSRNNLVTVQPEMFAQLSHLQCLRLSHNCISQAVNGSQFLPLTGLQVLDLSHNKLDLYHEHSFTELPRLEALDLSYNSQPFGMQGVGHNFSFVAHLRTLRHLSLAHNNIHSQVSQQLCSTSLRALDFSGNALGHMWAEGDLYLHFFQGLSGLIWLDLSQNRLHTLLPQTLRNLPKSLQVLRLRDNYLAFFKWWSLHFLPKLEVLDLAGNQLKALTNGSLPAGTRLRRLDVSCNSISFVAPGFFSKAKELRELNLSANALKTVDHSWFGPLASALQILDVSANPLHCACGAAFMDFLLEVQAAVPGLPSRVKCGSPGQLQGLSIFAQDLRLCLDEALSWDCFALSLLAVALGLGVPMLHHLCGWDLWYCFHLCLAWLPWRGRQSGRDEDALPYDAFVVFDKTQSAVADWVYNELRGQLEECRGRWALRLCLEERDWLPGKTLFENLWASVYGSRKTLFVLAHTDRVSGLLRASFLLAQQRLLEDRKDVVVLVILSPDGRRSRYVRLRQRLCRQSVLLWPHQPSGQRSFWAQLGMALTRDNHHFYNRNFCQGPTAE
Summary of the method: (§1)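 HEK-Blue cells overexpressing human TLR7, TLR8 or TLR9 with NF-κB/AP-1-driven SEAP reporter, pre-treated 60 min with compound ([…]). Stimulated with […] (TLR7), […] (TLR8) or ODN2006 200 nM (TLR9), then 22 h at 37° C; SEAP measured, % inhibition relative to agonist-plus-DMSO and known-inhibitor wells.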

[2] = biological target: T2, human TLR7 (Homo sapiens, UniProt Q9NYK1); test: TLR7/8/9 Inhibition Reporter Assays (TLR7); settings: HEK-Blue cells overexpressing human TLR7, SEAP reporter, stimulated with TLR7 ligand gardiquimod
T2 construct: host or cells: HEK-Blue cells (HEK293-derived reporter line)
T2 sequence (Q9NYK1 27-1049): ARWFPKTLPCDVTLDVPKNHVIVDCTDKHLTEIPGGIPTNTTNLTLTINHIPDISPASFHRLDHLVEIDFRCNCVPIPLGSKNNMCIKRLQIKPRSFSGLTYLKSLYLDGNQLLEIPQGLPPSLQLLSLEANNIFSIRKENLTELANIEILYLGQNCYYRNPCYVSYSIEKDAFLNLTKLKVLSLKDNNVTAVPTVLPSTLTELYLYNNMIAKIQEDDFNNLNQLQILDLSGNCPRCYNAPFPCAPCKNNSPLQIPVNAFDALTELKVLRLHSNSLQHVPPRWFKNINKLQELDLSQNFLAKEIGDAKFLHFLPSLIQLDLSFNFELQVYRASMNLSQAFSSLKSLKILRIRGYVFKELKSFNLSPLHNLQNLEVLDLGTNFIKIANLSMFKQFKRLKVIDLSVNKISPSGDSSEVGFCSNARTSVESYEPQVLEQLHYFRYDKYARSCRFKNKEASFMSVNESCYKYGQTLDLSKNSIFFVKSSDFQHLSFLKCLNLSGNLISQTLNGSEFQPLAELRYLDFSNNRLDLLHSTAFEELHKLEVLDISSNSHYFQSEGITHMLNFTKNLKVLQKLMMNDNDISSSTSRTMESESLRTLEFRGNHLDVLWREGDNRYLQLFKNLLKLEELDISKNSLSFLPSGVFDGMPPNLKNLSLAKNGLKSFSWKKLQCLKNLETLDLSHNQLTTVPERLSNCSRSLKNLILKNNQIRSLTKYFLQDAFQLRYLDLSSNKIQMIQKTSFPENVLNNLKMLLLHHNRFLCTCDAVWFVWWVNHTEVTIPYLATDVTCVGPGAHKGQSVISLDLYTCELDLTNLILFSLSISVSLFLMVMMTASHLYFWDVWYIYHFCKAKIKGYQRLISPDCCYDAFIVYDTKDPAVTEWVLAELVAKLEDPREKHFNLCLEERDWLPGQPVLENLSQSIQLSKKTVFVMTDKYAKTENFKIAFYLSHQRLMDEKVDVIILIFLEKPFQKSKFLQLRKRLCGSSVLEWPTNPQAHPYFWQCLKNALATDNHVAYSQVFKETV
Summary of the method: as §1

[3] = biological target: T3, human TLR8 (Homo sapiens, UniProt Q9NR97); test: TLR7/8/9 Inhibition Reporter Assays (TLR8); settings: HEK-Blue cells overexpressing human TLR8, SEAP reporter, stimulated with TLR8 ligand R848
T3 construct: host or cells: HEK-Blue cells (HEK293-derived reporter line)
T3 sequence (Q9NR97 27-1041): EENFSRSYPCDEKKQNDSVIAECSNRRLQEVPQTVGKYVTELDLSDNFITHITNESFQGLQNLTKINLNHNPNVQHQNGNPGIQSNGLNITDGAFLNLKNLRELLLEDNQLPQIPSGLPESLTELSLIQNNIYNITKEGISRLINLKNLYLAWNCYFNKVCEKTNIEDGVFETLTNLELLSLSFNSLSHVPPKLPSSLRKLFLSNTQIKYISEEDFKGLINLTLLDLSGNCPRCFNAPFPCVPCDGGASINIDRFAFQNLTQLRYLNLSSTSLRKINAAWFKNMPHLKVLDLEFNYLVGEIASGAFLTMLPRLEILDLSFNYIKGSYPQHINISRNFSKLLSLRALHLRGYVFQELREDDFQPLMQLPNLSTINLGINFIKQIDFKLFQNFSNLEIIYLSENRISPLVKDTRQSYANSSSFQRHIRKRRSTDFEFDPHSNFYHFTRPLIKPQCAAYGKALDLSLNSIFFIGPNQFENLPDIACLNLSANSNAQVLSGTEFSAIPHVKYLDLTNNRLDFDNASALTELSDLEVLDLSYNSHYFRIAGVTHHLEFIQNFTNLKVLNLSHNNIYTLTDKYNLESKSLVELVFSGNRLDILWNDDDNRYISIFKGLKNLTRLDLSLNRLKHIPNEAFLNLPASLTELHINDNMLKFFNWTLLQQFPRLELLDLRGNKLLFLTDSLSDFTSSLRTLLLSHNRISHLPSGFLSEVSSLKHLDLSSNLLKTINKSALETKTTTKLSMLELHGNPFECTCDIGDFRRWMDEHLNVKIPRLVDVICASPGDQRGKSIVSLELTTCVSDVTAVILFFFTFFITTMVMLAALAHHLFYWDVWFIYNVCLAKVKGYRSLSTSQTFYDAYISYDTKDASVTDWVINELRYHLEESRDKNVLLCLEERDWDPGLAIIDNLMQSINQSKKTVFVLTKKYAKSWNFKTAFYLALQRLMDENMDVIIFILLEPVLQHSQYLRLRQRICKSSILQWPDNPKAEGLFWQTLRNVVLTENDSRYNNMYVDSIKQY
Summary of the method: as §1

**Q.** What does the source list for Cc1nc(-c2ccc(CN3CCC(N4CCCC4)CC3)cc2)cc2c1nc(-c1ccc(S(C)(=O)=O)cc1)n2C [Example 46, 1,4-dimethyl-2-(4-(methylsulfonyl)phenyl)-6-(4-((4-(pyrrolidin-1-yl)piperidin-1-yl)methyl)phenyl)-1H-imidazo[4,5-c]pyridine]?
**A.** IC50 [1]: 58 nM; IC50 [2]: 1 µM; IC50 [3]: 5.5 µM

**Q.** Which IC50 [1] does the source give for CC(C)CN1C[C@@H]2CN(c3ccc(-c4cc5c(cn4)nc(-c4ccc(S(C)(=O)=O)cc4)n5C4CC4)cc3)C[C@@H]2C1 [Example 88, 1-cyclopropyl-6-(4-((3aR,6aS)-5-isobutylhexahydropyrrolo[3,4-c]pyrrol-2(1H)-yl)phenyl)-2-(4-(methylsulfonyl)phenyl)-1H-imidazo[4,5-c]pyridine] here?
**A.** 330 nM

**Q.** What about the IC50 [2] of the same compound?
**A.** 3.4 µM

**Q.** What about the IC50 [3] of the same compound?
**A.** 1.1 µM

**Q.** Which IC50 [1] does the source give for CC(C)N1CC2(CCN(c3ccc(-c4cc5c(cn4)nc(-c4ccc(S(C)(=O)=O)cc4)n5C)cc3)CC2)C1 [Example 95, 6-(4-(2-isopropyl-2,7-diazaspiro[3.5]nonan-7-yl)phenyl)-1-methyl-2-(4-(methylsulfonyl)phenyl)-1H-imidazo[4,5-c]pyridine] here?
**A.** 350 nM

**Q.** And the IC50 [2]?
**A.** 2.1 µM

**Q.** And the IC50 [3]?
**A.** 0.89 µM

**Q.** How did the IC50 [1] turn out when Cc1nc(-c2ccc(CCN3CCC(N4CCOCC4)CC3)cc2)cc2c1nc(-c1ccc(S(C)(=O)=O)cc1)n2C [Example 53, 4-(1-(4-(1,4-dimethyl-2-(4-(methylsulfonyl)phenyl)-1H-imidazo[4,5-c]pyridin-6-yl)phenethyl)piperidin-4-yl) morpholine] was run?
**A.** 74 nM

**Q.** And the IC50 [2]?
**A.** 3.1 µM

**Q.** And the IC50 [3]?
**A.** 7.6 µM

**Q.** With COc1ccc(-c2nc3c(C)nc(-c4ccc(N5CCN(CC6CC6)CC5)cc4)cc3n2C)cc1OC [Example 18, 6-(4-(4-(cyclopropylmethyl)piperazin-1-yl)phenyl)-2-(3,4-dimethoxyphenyl)-1,4-dimethyl-1H-imidazo[4,5-c]pyridine] as the compound, how does the IC50 [1] read?
**A.** 140 nM

**Q.** What about the IC50 [2] of the same compound?
**A.** 1.5 µM

**Q.** What about the IC50 [3] of the same compound?
**A.** 18 µM

**Q.** What does the source list for Cc1nc(-c2ccc(N3CCN(CC(C)(C)O)CC3)cc2)cc2c1nc(-c1ccc(S(C)(=O)=O)cc1)n2C [Example 8, 1-(4-(4-(1,4-dimethyl-2-(4-(methylsulfonyl)phenyl)-1H-imidazo[4,5-c]pyridin-6-yl)phenyl)piperazin-1-yl)-2-methylpropan-2-ol]?
**A.** IC50 [1]: 890 nM; IC50 [2]: 6.4 µM; IC50 [3]: 13 µM

**Q.** For COCCN1CC2(C1)CN(c1ccc(-c3cc4c(nc(-c5ccc(S(C)(=O)=O)cc5)n4C)c(C)n3)cc1)C2 [Example 104, 6-(4-(6-(2-methoxyethyl)-2,6-diazaspiro[3.3]heptan-2-yl)phenyl)-1,4-dimethyl-2-(4-(methylsulfonyl)phenyl)-1H-imidazo[4,5-c]pyridine], which IC50 [1] is on record?
**A.** 210 nM

**Q.** And the IC50 [2]?
**A.** 7.7 µM

**Q.** What about the IC50 [3] of the same compound?
**A.** 16 µM

**Q.** How did the IC50 [1] turn out when CC(C)N1CC2(CCN(c3ccc(-c4cc5c(cn4)nc(-c4ccc(S(C)(=O)=O)cc4)n5C)cc3)C2)C1 [Example 64, 6-(4-(2-isopropyl-2,6-diazaspiro[3.4]octan-6-yl)phenyl)-1-methyl-2-(4-(methylsulfonyl)phenyl)-1H-imidazo[4,5-c]pyridine] was run?
**A.** 220 nM

**Q.** And the IC50 [2]?
**A.** 2.8 µM

**Q.** What about the IC50 [3] of the same compound?
**A.** 0.79 µM

**Q.** What does the source list for CC(C)CN1CC2(CCN(c3ccc(-c4cc5c(cn4)nc(-c4ccc(S(C)(=O)=O)cc4)n5C4CC4)cc3)CC2)C1 [Example 86, 1-cyclopropyl-6-(4-(2-isobutyl-2,7-diazaspiro[3.5]nonan-7-yl)phenyl)-2-(4-(methylsulfonyl)phenyl)-1H-imidazo[4,5-c]pyridine]?
**A.** IC50 [1]: 270 nM; IC50 [2]: 6.7 µM; IC50 [3]: 3 µM

**Q.** Which results are given for Cc1cc(-c2nc3c(C)nc(-c4ccc(N5CCN(CC(C)C)CC5)cc4)cc3n2C)cc(C)n1 [Example 14, 2-(2,6-dimethylpyridin-4-yl)-6-(4-(4-isobutylpiperazin-1-yl)phenyl)-1,4-dimethyl-1H-imidazo[4,5-c]pyridine]?
**A.** IC50 [1]: 380 nM; IC50 [2]: 4.5 µM; IC50 [3]: 4.6 µM

**Q.** What does the source list for CC(C)CN1CC2(CCN(c3ccc(-c4cc5c(cn4)nc(-c4ccc(S(C)(=O)=O)cc4)n5C)cc3)CC2)C1 [Example 96, 6-(4-(2-isobutyl-2,7-diazaspiro[3.5]nonan-7-yl)phenyl)-1-methyl-2-(4-(methylsulfonyl)phenyl)-1H-imidazo[4,5-c]pyridine]?
**A.** IC50 [1]: 240 nM; IC50 [2]: 3 µM; IC50 [3]: 0.99 µM

**Q.** With COc1ccc(-c2nc3c(C)nc(-c4ccc(N5C[C@H]6CN(CC(C)C)C[C@H]6C5)cc4)cc3n2C)cc1OC [Example 65, 2-(3,4-dimethoxyphenyl)-6-(4-((3aR,6aS)-5-isobutylhexahydropyrrolo[3,4-c]pyrrol-2(1H)-yl)phenyl)-1,4-dimethyl-1H-imidazo[4,5-c]pyridine] as the compound, how does the IC50 [1] read?
**A.** 59 nM

**Q.** What about the IC50 [2] of the same compound?
**A.** 5.4 µM

**Q.** What about the IC50 [3] of the same compound?
**A.** > 50 µM

**Q.** Which results are given for COc1ccc(-c2nc3c(C)nc(-c4ccc(N5CCN(CC(C)C)CC5)cc4)cc3n2C)cc1OC [Example 17, 2-(3,4-dimethoxyphenyl)-6-(4-(4-isobutylpiperazin-1-yl)phenyl)-1,4-dimethyl-1H-imidazo[4,5-c]pyridine]?
**A.** IC50 [1]: 460 nM; IC50 [2]: 4.4 µM; IC50 [3]: 12 µM
